Data from US7662789B2, “Peptide substance restoring myocardium function” (“Access Bioscience” CJSC, priority 2004, dated 2010).
Read-outs that look alike come from different tables or passages of the source. Marks after values point to notes of the source that are not given here. Where a SMILES comes first, the peptide text is derived from it.

Columns and labels:
[1] = system: isolated rat heart; test: Contractive ability of isolated rat heart after ischemia; settings: 10 min re-perfusion
Protocol: Another experiment was devoted to the study of the tetrapeptide's effect on the restoration of isolated rat heart's ability to contract after a period of ischemia. The study was conducted on 3 groups, 8 animals in each, in case of the additionally strained cardiac muscle working mode, under conditions of induced contraction rhythm and perfusion solution temperature increase up to 37° C.
The other series of experiments conducted on 12 rat hearts was aimed at the study of the tetrapeptide's protective effect in case of its addition into the perfusate in the concentration of […] before the induction of ischemia. Then “severe” stimulation was conducted (5 Hz frequency) in the heart and contractive activity was estimated. […] The administration of the tetrapeptide in a very small dose of 0.005 μg/ml preserved the heart, which was on the verge of stopping, from fibrillation and contractive activity decrease, restoring the value of the latter index.

[2] = system: adrenalin dystrophy in rat myocardium; test: Adrenalin dystrophy in rat myocardium; format: in vivo, rats; settings: for Diene conjugates content / Malon dialdegide content: 24 hours
Protocol: The experiment was conducted on 30 white mongrel rats with body weight of 180-200 g. The animals were randomly subdivided into three groups, each consisting of 10 animals. Adrenalin dystrophy was induced by administering the fresh adrenalin solution (“Serva”, USA) intraperitoneally in the dose of 2 mg/kg. The control animals received 0.9% NaCl solution. Then the experimental animals were in 1 and 5 hours treated with Ala-Glu-Asp-Arg (SEQ ID NO:1) tetrapeptide in the dose of 0.05 μg per animal in sterile 0.9% NaCl solution. In 4 hours since the beginning of the experiment cardiac muscle bioptates weighing approximately 10 mg were taken for the identification of cardiac dehydrogenases activity and glycogen content in the myocardium. In 24 hours the animals were killed by momentary decapitation. Left ventricle fragments were frozen in […]. In cryostatic slices the activity of succinatedehydrogenase (SDH) was histochemically identified, as well as of NADN-dehydrogenase (NADN-DH), lactatedehydrogenase and glycogen content.

[3] = system: chlorine-calcium arrhythmia in rats; test: Chlorine-calcium (CaCl2) arrhythmia in rats; format: in vivo; settings: for Death after the first arrhythmogen administration, abs.: 10 animals
Protocol: The experiment was conducted on 60 white mongrel rats with body weight of 180-200 g. The animals were randomly subdivided into 6 groups, each consisting of 10 animals. The rats were narcotized with urethane and received 220 mg/kg of 10% CaCl2 solution. Ala-Glu-Asp-Arg tetrapeptide was administered to the animals intraperitoneally, once, in the doses of 0.05-1.0 μg/kg in sterile 0.9% NaCl solution.

[4] = system: organotypic cardiac culture explants; settings: 3 days incubation
Protocol: Cardiac tissue explants (from the left and right ventricles) of pubertal Wistar rats were cultivated in petri dishes with collagen bottom cover. The nutritious medium was composed of 35% Eagle's medium, 35% Hanx solution, 25% calf fetal serum and 5% of chicken embryonic extract with added glucose, insulin, gentamycin and glutamin. Ala-Glu-Asp-Arg (SEQ ID NO:1) tetrapeptide was added into the cultural medium in fixed concentrations, from 0.01 to 20.0 ng per ml of nutritious medium. After 3 days of incubation at the temperature of 37° C. the increase in the area of explants was identified using phase contrast microscope. Biological activity of the preparation was expressed in the change of square index (SI) of the explants cultivated in the medium containing the peptide, as compared to the control.

[5] = system: white mongrel male rats; test: Sub-acute toxicity, 90 days intramuscular in rats; format: in vivo; settings: 90 days i.m. daily; 1 μg/kg, 0.1 mg/kg, 1 mg/kg; 100-1000 times the therapeutic doses
Protocol: The study of sub-acute toxicity was conducted on 60 white mongrel male rats with body weight of 160-240 g. […] Before the substance's administration, as well as on the 30th, 60th and 90th day after the beginning of the course the morphological composition and the properties of the animals' peripheric blood were studied. Upon completion of the experiment the biochemical and coagulological indices of the animals' blood were studied.

[6] = 0.005 μg/ml, listed as tetrapeptide
[7] = adrenalin + 0.05 μg per animal, liver
[8] = adrenalin + tetrapeptide, 4 hours

C[C@H](N)C(=O)N[C@@H](CCC(=O)O)C(=O)N[C@@H](CC(=O)O)C(=O)N[C@@H](CCCNC(=N)N)C(=O)O [Tetrapeptide, L-alanyl-L-glutamyl-L-aspartyl-L-arginine] (H-AEDR-OH)
Amplitude of contractions, % of init. ([1]; 0.005 μg/ml): 75 ± 12 % of init. | Coronary duct ([1]; 0.005 μg/ml): 10.8 ± 1.6 mL/min | Extent of contracture ([1]; 0.005 μg/ml): 1.3 ± 0.4 mm | Max. speed of contraction, % of init. ([1]; 0.005 μg/ml): 56 ± 10 % of init. | Max. speed of relaxation, % of init. ([1]; 0.005 μg/ml): 69 ± 8 % of init. | Amplitude of contractions, % of init. [1, 6]: 75±12 % of init. | Coronary duct [1, 6]: 10.8 ± 1.6 mL/min | Amplitude of contractions, % of init. ([1]; 0.05 μg/ml): 36 ± 10 % of init. | Coronary duct ([1]; 0.05 μg/ml): 9.6 ± 0.7 mL/min | Extent of contracture ([1]; 0.05 μg/ml): 2.5 ± 0.3 mm | Max. speed of contraction, % of init. ([1]; 0.05 μg/ml): 28 ± 7 % of init. | Max. speed of relaxation, % of init. ([1]; 0.05 μg/ml): 28 ± 6 % of init. | Quantity of diene conjugates in the myocardium ([2]; 24 hours after induction of dystrophy, control 176±24): 110 ± 17 nmol/g | Diene conjugates content ([2]; adrenalin 2 mg/kg i.p. + 0.05 μg per animal at 1 and 5 h, heart): 110 ± 17 nmole/g of tissue | Malon dialdegide content ([2]; adrenalin + 0.05 μg per animal, heart): 173 ± 25 nmole/g of tissue | Diene conjugates content [2, 7]: 92 ± 11 nmole/g of tissue | Malon dialdegide content [2, 7]: 270 ± 56 nmole/g of tissue | Enzyme activity in the myocardium tissue: LDH [2, 8]: 0.154 ± 0.011 rel. optical density unit | Enzyme activity in the myocardium tissue: NADN-DH [2, 8]: 0.344 + 0.019 rel. optical density unit | Enzyme activity in the myocardium tissue: SDH [2, 8]: 0.284 ± 0.013 rel. optical density unit | Glycogen content ([2]; adrenalin + tetrapeptide, myocardium, 4 hours): 0.168±0.021 rel. optical density unit | Death after the first arrhythmogen administration, % ([3]; 0.05 μg/kg i.p. once): 50% | Frequency of sinus rhythm restoration after the first CaCl2 administration ([3]; 0.05 μg/kg i.p. once): 27.0% | Frequency of ventricle fibrillation development in the course of the experiment ([3]; 0.05 μg/kg i.p. once): 60.3% | Maximum tolerable arrhythmogen dose ([3]; 0.05 μg/kg i.p. once): 220 mg/kg | Death after the first arrhythmogen administration, abs. ([3]; 0.05 μg/kg i.p. once): 5 | Death after the first arrhythmogen administration, % ([3]; 0.1 μg/kg i.p. once): 50% | Frequency of sinus rhythm restoration after the first CaCl2 administration ([3]; 0.1 μg/kg i.p. once): 29.6% | Frequency of ventricle fibrillation development in the course of the experiment ([3]; 0.1 μg/kg i.p. once): 45.8% | Maximum tolerable arrhythmogen dose ([3]; 0.1 μg/kg i.p. once): 220 mg/kg | Death after the first arrhythmogen administration, abs. ([3]; 0.1 μg/kg i.p. once): 5 | Increase of frequency of heart contractions (FHC) ([3]; 0.2 μg/kg and 0.5 μg/kg, bradicardia rats): 12.3-48.6% | Death after the first arrhythmogen administration, % ([3]; 0.2 μg/kg i.p. once): 30% | Frequency of sinus rhythm restoration after the first CaCl2 administration ([3]; 0.2 μg/kg i.p. once): 49.0* % | Frequency of ventricle fibrillation development in the course of the experiment ([3]; 0.2 μg/kg i.p. once): 35.2* % | Maximum tolerable arrhythmogen dose ([3]; 0.2 μg/kg i.p. once): 440 mg/kg | Death after the first arrhythmogen administration, abs. ([3]; 0.2 μg/kg i.p. once): 3 | Death after the first arrhythmogen administration, % ([3]; 0.5 μg/kg i.p. once): 40% | Frequency of sinus rhythm restoration after the first CaCl2 administration ([3]; 0.5 μg/kg i.p. once): 39.5* % | Frequency of ventricle fibrillation development in the course of the experiment ([3]; 0.5 μg/kg i.p. once): 39.1* % | Maximum tolerable arrhythmogen dose ([3]; 0.5 μg/kg i.p. once): 440 mg/kg | Death after the first arrhythmogen administration, abs. ([3]; 0.5 μg/kg i.p. once): 4 | Death after the first arrhythmogen administration, % ([3]; 1.0 μg/kg i.p. once): 60% | Frequency of sinus rhythm restoration after the first CaCl2 administration ([3]; 1.0 μg/kg i.p. once): 16.3% | Frequency of ventricle fibrillation development in the course of the experiment ([3]; 1.0 μg/kg i.p. once): 43.6% | Maximum tolerable arrhythmogen dose ([3]; 1.0 μg/kg i.p. once): 220 mg/kg | Death after the first arrhythmogen administration, abs. ([3]; 1.0 μg/kg i.p. once): 6 | Most efficient dose ([3]; doses 0.05-1.0 μg/kg i.p. tested): 0.0002 mg/kg | SI, % with respect to the control ([4]; 0.01 ng/ml): 10% | SI, % with respect to the control ([4]; 0.05 ng/ml): 20* % | SI, % with respect to the control ([4]; 0.1 ng/ml): 22* % | SI, % with respect to the control ([4]; 0.5 ng/ml): 20* % | SI, % with respect to the control ([4]; 1.0 ng/ml): 15* % | SI, % with respect to the control ([4]; 2.0 ng/ml): 20* % | SI, % with respect to the control ([4]; 10.0 ng/ml): 27* % | SI, % with respect to the control ([4]; 20.0 ng/ml): 8% | Sub-acute toxicity, side effects [5]: absence of side effects
